Among the data in patent US10081634B2, “Heterocyclic compound” (Daewoong Pharmaceutical Co., Ltd., priority 2014, dated 2018) are IC50 values, retold here.

Like-named read-outs stand apart in the source and are kept apart here. Where only a bound is given, the exact number is not on record here.

Assay [1] has as its target T1, PRS (prolyl-tRNA synthetase) (Homo sapiens, UniProt P07814).
T1 construct: the portion corresponding to PRS in cDNA of EPRS was subcloned; made in house
T1 sequence (P07814 1007-1512 limits assumed): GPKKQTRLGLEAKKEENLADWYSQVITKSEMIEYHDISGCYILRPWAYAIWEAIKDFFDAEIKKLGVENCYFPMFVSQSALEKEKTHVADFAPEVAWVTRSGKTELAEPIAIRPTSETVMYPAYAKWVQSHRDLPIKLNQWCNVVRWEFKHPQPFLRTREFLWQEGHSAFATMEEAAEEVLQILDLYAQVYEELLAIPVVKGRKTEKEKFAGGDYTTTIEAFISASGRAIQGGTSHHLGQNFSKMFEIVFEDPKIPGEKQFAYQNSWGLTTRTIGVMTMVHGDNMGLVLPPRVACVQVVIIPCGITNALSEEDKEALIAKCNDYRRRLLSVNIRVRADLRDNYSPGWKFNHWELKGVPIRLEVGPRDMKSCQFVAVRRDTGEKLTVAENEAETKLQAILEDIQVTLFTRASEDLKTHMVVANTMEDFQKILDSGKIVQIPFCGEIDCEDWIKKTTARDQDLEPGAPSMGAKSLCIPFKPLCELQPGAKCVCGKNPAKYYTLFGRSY
As to the kind of experiment: In vitro PRS enzyme activity inhibition experiment ([3H]proline, liquid scintillation). Type of assay: biochemical. Summed up:
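Purified human PRS domain subcloned from EPRS cDNA, reacted at 37 °C for 5–10 min in 20 mM KPO4 pH 7.4, 6 mM MgAc, 5 mM ATP, tRNA, 0.5 mM DTT and [3H]proline. Compounds tested at 1 μM. Aminoacylation read on TCA-treated filter paper by liquid scintillation, giving % inhibition or IC50.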

Assay [2] concerns NCI-H460 cells. Briefly: Cancer cell growth inhibition experiment (MTT assay). In kind it is cell-based. The conditions noted are these: Homo sapiens; NCI-H460 lung cancer cell line; 48 hours treatment; MTT cell viability. The method, then:
NCI-H460 cells, lung cancer cell lines, were cultured in 5% CO2, 37° C. incubator using a flask for 75 cm^2 tissue culture. 96-well plates were used for the evaluation. These were prepared by differently applying at concentrations in the range of 6,000 to 12,000 cells/well according to the growth rate of the cell lines. The medium containing 5% FBS were dispensed in 200 μL/well and used. The medium were cultured for 24 hours. After confirming the cell status and dispensing form of a 96-well plate under a microscope, they were used for subsequent experiments. The compounds were evaluated at concentrations of 100, 30, 10, 3, 1, 0.3, 0.03, 0.01 μM. After removing the existing medium, the compounds with various concentrations were treated in an amount of 200 μL/well. The compounds-treated plates were further cultured for 48 hours, and the cell viabilities were measured by MTT assay to calculate IC50 values.
% Inhibition and IC50 values of the respective compounds were calculated and analyzed using Sigma Plot 8.0. The case where the derived IC50 is 5 μM or less is represented by “A”, the case where the IC50 is 5 to 30 μM is represented by “B”, and the case where the IC50 is 30 μM or higher is represented by “C”.

Setting [3] is: purified PRS protein subcloned from EPRS cDNA, 37° C., 5 to 10 minutes, read-out: PRS IC50.

As a reminder, the IC50 is the concentration needed to halve the response being measured. With `O=C(C[C@H]1NCCC[C@@H]1O)Cn1c(CO)nc2cc(Cl)c(Cl)cc21` [Example 87, 1-(5,6-dichloro-2-(hydroxymethyl)-1H-benzo[d]imidazol-1-yl)-3-((2R,3S)-3-hydroxypiperidin-2-yl)propan-2-one], the IC50 was less than 0.1 µM in assay [1] (setting [3]) and no more than 5 µM in assay [2].

For `Cc1c(Cl)cnc2c1ncn2CC(=O)C[C@H]1NCCC[C@@H]1O` [Example 39, 1-(6-chloro-7-methyl-3H-imidazo[4,5-b]pyridin-3-yl)-3-((2R,3S)-3-hydroxypiperidin-2-yl)propan-2-one], the IC50 in assay [1] (setting [3]) was less than 0.1 µM; in assay [2], no more than 5 µM.

Regarding `CCc1nc2cc(Cl)c(Cl)cc2n1CC(=O)C[C@H]1NCCC[C@@H]1O` [Example 48, 1-(5,6-dichloro-2-ethyl-1H-benzo[d]imidazol-1-yl)-3-((2R,3S)-3-hydroxypiperidin-2-yl)propan-2-one], the IC50 is greater than 0.5 µM in assay [1] (setting [3]) and no less than 30 µM in assay [2].

On to `O[C@H]1CCCN[C@@H]1CC(F)Cn1cnc2cc(Cl)c(Cl)cc21` (stereo partly drawn) [Example 81, (2R,3S)-2-(3-(5,6-dichloro-1H-benzo[d]imidazol-1-yl)-2-fluoropropyl)piperidin-3-ol], for which the results for the IC50 in assay [1] (setting [3]) and in assay [2] were greater than 0.5 µM and no less than 30 µM, respectively.

As for `O=C(C[C@H]1NCCC[C@@H]1O)Cn1nnc2ccc(Cl)cc21` [Example 100, 1-(6-chloro-1H-benzo[d][1,2,3]triazol-1-yl)-3-((2R,3S)-3-hydroxypiperidin-2-yl)propan-2-one], the IC50 in assay [1] (setting [3]) was greater than 0.5 µM; in assay [2], no less than 30 µM.

`O=C(C[C@H]1NCCC[C@@H]1O)Cn1cnc2nc(C(F)(F)F)ccc21` [Example 30, 1-((2R,3S)-3-hydroxypiperidin-2-yl)-3-(5-(trifluoromethyl)-1H-imidazo[4,5-b]pyridin-1-yl)propan-2-one]: the IC50 in assay [1] (setting [3]) is greater than 0.5 µM; in assay [2], no less than 30 µM.

Consider `O=C(C[C@H]1NCCC[C@@H]1O)Cn1cnc2c(C(F)(F)F)c(Br)ccc21` [Example 18, 1-(5-bromo-4-(trifluoromethyl)-1H-benzo[d]imidazol-1-yl)-3-((2R,3S)-3-hydroxypiperidin-2-yl)propan-2-one], for which the IC50 is less than 0.1 µM in assay [1] (setting [3]) and 5 to 30 µM in assay [2].

Consider `O=C(C[C@H]1NCCC[C@@H]1O)Cn1cnc2cc(F)c(F)cc21` [Example 10, 1-(5,6-difluoro-1H-benzo[d]imidazol-1-yl)-3-((2R,3S)-3-hydroxypiperidin-2-yl)propan-2-one], for which the IC50 is 0.1 to 0.5 µM in assay [1] (setting [3]) and 5 to 30 µM in assay [2].

As to `O=C(C[C@@H]1CCCN1)Cn1cnc2cc(Cl)c(Cl)cc21` [Example 90, (S)-1-(5,6-dichloro-1H-benzo[d]imidazol-1-yl)-3-(pyrrolidin-2-yl)propan-2-one], the IC50 is greater than 0.5 µM in assay [1] (setting [3]) and no less than 30 µM in assay [2].

On to `O=C(C[C@H]1NCCC[C@@H]1O)Cn1cnc2c(Cl)c(Br)cnc21` [Example 42, 1-(6-bromo-7-chloro-3H-imidazo[4,5-b]pyridin-3-yl)-3-((2R,3S)-3-hydroxypiperidin-2-yl)propan-2-one], for which the IC50 in assay [1] was less than 0.1 µM; in assay [2], no more than 5 µM.

Turning to `Cc1nc2cc(Cl)c(Cl)cc2n1CC(=O)C[C@H]1NCCC[C@@H]1O` [Example 46, 1-(5,6-dichloro-2-methyl-1H-benzo[d]imidazol-1-yl)-3-((2R,3S)-3-hydroxypiperidin-2-yl)propan-2-one], the IC50 was less than 0.1 µM in assay [1] (setting [3]) and no less than 30 µM in assay [2].

Consider `O=C(C[C@H]1NCCC[C@@H]1O)Cn1cnc2c(Cl)c(Br)ccc21` [Example 22, 1-(5-bromo-4-chloro-1H-benzo[d]imidazol-1-yl)-3-((2R,3S)-3-hydroxypiperidin-2-yl)propan-2-one], for which the concentration for half-maximal inhibition (IC50) in assay [1] (setting [3]) was less than 0.1 µM; in assay [2], no more than 5 µM.

Turning to `O=C(C[C@H]1NCCC[C@@H]1O)Cn1cnc2ccccc21` [Example 1, 1-(1H-benzo[d]imidazol-1-yl)-3-((2R,3S)-3-hydroxypiperidin-2-yl)propan-2-one], the half-inhibitory concentration (IC50) in assay [1] (setting [3]) was greater than 0.5 µM; in assay [2], no less than 30 µM.

In the case of `O=C(C[C@H]1NCCC[C@@H]1O)Cn1ccc2ccnc(Cl)c21` [Example 93, 1-(7-chloro-1H-pyrrolo[2,3-c]pyridin-1-yl)-3-((2R,3S)-3-hydroxypiperidin-2-yl)propan-2-one], the IC50 is 0.1 to 0.5 µM in assay [1] (setting [3]) and no less than 30 µM in assay [2].

`O=C(C[C@H]1NCCC[C@@H]1O)Cn1cnc2c(F)c(Br)ccc21` [Example 20, 1-(5-bromo-4-fluoro-1H-benzo[d]imidazol-1-yl)-3-((2R,3S)-3-hydroxypiperidin-2-yl)propan-2-one]: the values for the IC50 in assay [1] (setting [3]) and in assay [2] were less than 0.1 µM and no more than 5 µM, respectively.

For the compound `O=C(C[C@H]1NCCC[C@@H]1O)Cn1cnc2ccc(C(F)(F)F)nc21` [Example 36, 1-((2R,3S)-3-hydroxypiperidin-2-yl)-3-(5-(trifluoromethyl)-3H-imidazo[4,5-b]pyridin-3-yl)propan-2-one], the IC50 in assay [1] (setting [3]) is less than 0.1 µM; in assay [2], 5 to 30 µM.

For `O=C(C[C@H]1NCCC[C@@H]1O)Cn1cnc2cncc(Br)c21` [Example 33, 1-(7-bromo-1H-imidazo[4,5-c]pyridin-1-yl)-3-((2R,3S)-3-hydroxypiperidin-2-yl)propan-2-one], the IC50 in assay [1] (setting [3]) was less than 0.1 µM; in assay [2] it was 5 to 30 µM.

As to `CC(O)(C[C@H]1NCCC[C@@H]1O)Cn1cnc2ccccc21` (stereo partly drawn) [Example 80, (2R,3S)-2-(3-(1H-benzo[d]imidazol-1-yl)-2-hydroxy-2-methylpropyl)piperidin-3-ol], the IC50 in assay [1] (setting [3]) was greater than 0.5 µM; in assay [2] it was no less than 30 µM.

As for `O=C(C[C@H]1NCCC[C@@H]1O)Cn1nnc2cc(Cl)ccc21` [Example 99, 1-(5-chloro-1H-benzo[d][1,2,3]triazol-1-yl)-3-((2R,3S)-3-hydroxypiperidin-2-yl)propan-2-one], the results for the IC50 in assay [1] (setting [3]) and in assay [2] were 0.1 to 0.5 µM and no less than 30 µM, respectively.

As for `O=C(C[C@H]1NCCC[C@@H]1O)Cn1ccc2ncc(Br)cc21` [Example 94, 1-(6-bromo-1H-pyrrolo[3,2-b]pyridin-1-yl)-3-((2R,3S)-3-hydroxypiperidin-2-yl)propan-2-one], the IC50 is greater than 0.5 µM in assay [1] (setting [3]) and no less than 30 µM in assay [2].
